From BindingDB's records for patent US20260069571 (Redx Pharma, 2026) come the findings set out here.

The target of assay [1] is T1, Discoidin domain-containing receptor 2 (Homo sapiens, UniProt Q16832).
T1 sequence (Q16832 whole entry): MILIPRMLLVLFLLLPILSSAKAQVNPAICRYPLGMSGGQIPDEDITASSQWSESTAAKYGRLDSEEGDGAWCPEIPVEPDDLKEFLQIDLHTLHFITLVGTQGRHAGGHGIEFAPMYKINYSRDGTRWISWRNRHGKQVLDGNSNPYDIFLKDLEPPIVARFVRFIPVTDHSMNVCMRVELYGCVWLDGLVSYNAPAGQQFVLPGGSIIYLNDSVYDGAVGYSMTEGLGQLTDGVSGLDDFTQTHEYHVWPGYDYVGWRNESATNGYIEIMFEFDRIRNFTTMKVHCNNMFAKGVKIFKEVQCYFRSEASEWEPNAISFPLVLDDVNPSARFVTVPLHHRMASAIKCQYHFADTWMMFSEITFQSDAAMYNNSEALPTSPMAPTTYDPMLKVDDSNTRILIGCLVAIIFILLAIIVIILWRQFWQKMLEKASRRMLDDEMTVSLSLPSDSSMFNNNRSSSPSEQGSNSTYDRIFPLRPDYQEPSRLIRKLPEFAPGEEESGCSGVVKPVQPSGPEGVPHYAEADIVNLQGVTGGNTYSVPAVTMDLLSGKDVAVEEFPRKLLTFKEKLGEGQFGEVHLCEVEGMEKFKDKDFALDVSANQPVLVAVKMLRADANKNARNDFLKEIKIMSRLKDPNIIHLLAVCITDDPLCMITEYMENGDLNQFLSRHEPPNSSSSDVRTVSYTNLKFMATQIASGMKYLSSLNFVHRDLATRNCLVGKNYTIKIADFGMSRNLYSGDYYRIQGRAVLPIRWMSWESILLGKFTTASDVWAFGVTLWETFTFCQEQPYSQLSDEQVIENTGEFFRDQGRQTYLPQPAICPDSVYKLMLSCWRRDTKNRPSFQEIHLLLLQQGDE
Kind of assay: DDR1 and DDR2 Biochemical Assay. How it is done: (§1) The capacity of compounds to bind to DDR1 and DDR2 was quantified using a LanthaScreen Eu Kinase Binding Assay. Recombinant human DDR1 (2.5 nM; aa440-876 containing a GST tag) and DDR2 (1.75 nM; aa427-855 containing a GST tag) were diluted in assay buffer (50 mM HEPES pH7.3, 10 mM MgCl2, 1 mM EGTA and 0.01% Tween) with various concentrations of compound in a 384-well plate and a volume of 5 uL. After a 30-minute incubation at room temperature, 2.5 uL of Eu-anti GST antibody (diluted to 1 nM in assay buffer) plus Kinase Tracer 178 (diluted in assay buffer to 5 nM for DDR1 and 10 nM for DDR2) were added to the plate. Following 60-minute incubation at room temperature, time-resolved fluorescence was measured on a BMG Labtech PHERAstar plate reader. DMSO (1%) and reference compound (1 μM) were used to generate the Max and Min assay signals, respectively. Data was analysed using a four-parameter logistic model to calculate IC50 values, with at least two independent replicates were performed for each compound.

For assay [2], the target named is Epithelial discoidin domain-containing receptor 1 (Homo sapiens, UniProt Q08345). Kind of assay: DDR1 and DDR2 Biochemical Assay. The procedure: as §1
Sequence of Epithelial discoidin domain-containing receptor 1 (Q08345 whole entry, the tested form may be a part): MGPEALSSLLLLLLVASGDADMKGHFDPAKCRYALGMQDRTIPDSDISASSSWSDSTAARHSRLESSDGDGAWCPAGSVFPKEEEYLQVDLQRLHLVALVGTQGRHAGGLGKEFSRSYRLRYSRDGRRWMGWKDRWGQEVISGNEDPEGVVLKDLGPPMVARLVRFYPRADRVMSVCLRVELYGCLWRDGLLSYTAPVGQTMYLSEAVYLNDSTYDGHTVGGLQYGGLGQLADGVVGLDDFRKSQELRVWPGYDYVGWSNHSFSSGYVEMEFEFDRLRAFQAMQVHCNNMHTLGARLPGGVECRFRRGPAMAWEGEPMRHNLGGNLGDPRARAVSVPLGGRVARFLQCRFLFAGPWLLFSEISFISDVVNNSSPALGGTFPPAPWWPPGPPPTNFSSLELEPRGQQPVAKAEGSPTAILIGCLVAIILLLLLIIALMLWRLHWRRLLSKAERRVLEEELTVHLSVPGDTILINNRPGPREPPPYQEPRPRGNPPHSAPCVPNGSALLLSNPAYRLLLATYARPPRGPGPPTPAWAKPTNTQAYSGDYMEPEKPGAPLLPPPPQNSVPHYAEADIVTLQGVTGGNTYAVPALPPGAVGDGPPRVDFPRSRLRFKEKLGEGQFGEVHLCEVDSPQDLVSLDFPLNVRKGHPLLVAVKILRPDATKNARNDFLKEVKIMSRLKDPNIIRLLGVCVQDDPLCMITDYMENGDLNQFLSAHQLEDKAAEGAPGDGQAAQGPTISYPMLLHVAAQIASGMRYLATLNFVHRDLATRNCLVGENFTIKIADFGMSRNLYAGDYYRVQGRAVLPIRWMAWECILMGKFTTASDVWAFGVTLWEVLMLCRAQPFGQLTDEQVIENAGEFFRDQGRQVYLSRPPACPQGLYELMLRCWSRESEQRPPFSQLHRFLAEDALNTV

SMILES strings stand for the structures. pIC50: −log10 of the molar value.

Turning to `Cc1n[nH]c2cc(Nc3cccc4c3C(=O)N(CC(=O)NCC(F)(F)F)C4)ccc12` [US20260069571, Example 6], the pIC50 in assay [1] and in assay [2] was above 8.00 each time. Turning to `Cn1ncc2cc(Nc3cccc4c3C(=O)N(CC(=O)N3CCCC(C(F)(F)F)C3)C4)ccc21` (stereo not drawn) [US20260069571, Example 12], in assay [2], the pIC50 – broadly, the negative decadic logarithm of the IC50, by convention in mol/L – is above 8.00.
